This note sets out measurements from the OligoGym collection.

The target in the data set is SOST. Nature of the data set: reporter assay of Huesken 2005. The following applies: siRNA. Background: A reporter such as luciferase makes a cellular process visible.

Oligonucleotides are given in HELM: sugar(base)linkage, 5' to 3'; d 2'-deoxyribose, r ribose, m 2'-O-methylribose, p phosphate. ss, as = sense and antisense strand
Note: test concentration or dose not given here.

Consider “RNA1{r(C)p.r(C)p.r(G)p.r(U)p.r(G)p.r(U)p.r(A)p.r(G)p.r(U)p.r(G)p.r(G)p.r(A)p.r(G)p.r(G)p.r(G)p.r(C)p.r(C)p.r(A)p.r(G)p.d(T)p.d(T)}|RNA2{r(C)p.r(U)p.r(G)p.r(G)p.r(C)p.r(C)p.r(C)p.r(U)p.r(C)p.r(C)p.r(A)p.r(C)p.r(U)p.r(A)p.r(C)p.r(A)p.r(C)p.r(G)p.r(G)p.d(A)p.d(A)}$$$RNA1{StrandType:ss}|RNA2{StrandType:as}$”, for which the normalised inhibition (eCFP-eYFP dual reporter) was 55.2%. The figure for “RNA1{r(A)p.r(G)p.r(G)p.r(U)p.r(G)p.r(C)p.r(G)p.r(C)p.r(C)p.r(U)p.r(G)p.r(G)p.r(U)p.r(G)p.r(G)p.r(C)p.r(C)p.r(U)p.r(C)p.d(T)p.d(T)}|RNA2{r(G)p.r(A)p.r(G)p.r(G)p.r(C)p.r(C)p.r(A)p.r(C)p.r(C)p.r(A)p.r(G)p.r(G)p.r(C)p.r(G)p.r(C)p.r(A)p.r(C)p.r(C)p.r(U)p.d(T)p.d(G)}$$$RNA1{StrandType:ss}|RNA2{StrandType:as}$” is 71.2%; for “RNA1{r(C)p.r(A)p.r(C)p.r(C)p.r(C)p.r(C)p.r(U)p.r(U)p.r(U)p.r(G)p.r(A)p.r(G)p.r(A)p.r(C)p.r(C)p.r(A)p.r(A)p.r(A)p.r(G)p.d(T)p.d(T)}|RNA2{r(C)p.r(U)p.r(U)p.r(U)p.r(G)p.r(G)p.r(U)p.r(C)p.r(U)p.r(C)p.r(A)p.r(A)p.r(A)p.r(G)p.r(G)p.r(G)p.r(G)p.r(U)p.r(G)p.d(G)p.d(T)}$$$RNA1{StrandType:ss}|RNA2{StrandType:as}$” it is 72.2%.

In turn, “RNA1{r(C)p.r(C)p.r(G)p.r(U)p.r(G)p.r(C)p.r(C)p.r(G)p.r(C)p.r(A)p.r(G)p.r(C)p.r(G)p.r(C)p.r(C)p.r(A)p.r(A)p.r(G)p.r(C)p.d(T)p.d(T)}|RNA2{r(G)p.r(C)p.r(U)p.r(U)p.r(G)p.r(G)p.r(C)p.r(G)p.r(C)p.r(U)p.r(G)p.r(C)p.r(G)p.r(G)p.r(C)p.r(A)p.r(C)p.r(G)p.r(G)p.d(C)p.d(C)}$$$RNA1{StrandType:ss}|RNA2{StrandType:as}$” displayed a normalised inhibition (eCFP-eYFP dual reporter) of 50.5%. In the case of “RNA1{r(A)p.r(G)p.r(C)p.r(U)p.r(G)p.r(C)p.r(U)p.r(G)p.r(U)p.r(G)p.r(U)p.r(C)p.r(C)p.r(C)p.r(G)p.r(G)p.r(U)p.r(G)p.r(G)p.d(T)p.d(T)}|RNA2{r(C)p.r(C)p.r(A)p.r(C)p.r(C)p.r(G)p.r(G)p.r(G)p.r(A)p.r(C)p.r(A)p.r(C)p.r(A)p.r(G)p.r(C)p.r(A)p.r(G)p.r(C)p.r(U)p.d(G)p.d(C)}$$$RNA1{StrandType:ss}|RNA2{StrandType:as}$”, the normalised inhibition (eCFP-eYFP dual reporter) stood at 66%. As to “RNA1{r(C)p.r(U)p.r(C)p.r(A)p.r(A)p.r(G)p.r(G)p.r(A)p.r(C)p.r(U)p.r(U)p.r(C)p.r(G)p.r(G)p.r(G)p.r(A)p.r(C)p.r(C)p.r(G)p.d(T)p.d(T)}|RNA2{r(C)p.r(G)p.r(G)p.r(U)p.r(C)p.r(C)p.r(C)p.r(G)p.r(A)p.r(A)p.r(G)p.r(U)p.r(C)p.r(C)p.r(U)p.r(U)p.r(G)p.r(A)p.r(G)p.d(C)p.d(T)}$$$RNA1{StrandType:ss}|RNA2{StrandType:as}$”, the normalised inhibition (eCFP-eYFP dual reporter) was found to be 62.6%. For the substance “RNA1{r(C)p.r(A)p.r(A)p.r(G)p.r(U)p.r(G)p.r(G)p.r(U)p.r(G)p.r(G)p.r(C)p.r(G)p.r(A)p.r(C)p.r(C)p.r(U)p.r(A)p.r(G)p.r(U)p.d(T)p.d(T)}|RNA2{r(A)p.r(C)p.r(U)p.r(A)p.r(G)p.r(G)p.r(U)p.r(C)p.r(G)p.r(C)p.r(C)p.r(A)p.r(C)p.r(C)p.r(A)p.r(C)p.r(U)p.r(U)p.r(G)p.d(C)p.d(C)}$$$RNA1{StrandType:ss}|RNA2{StrandType:as}$”, the normalised inhibition (eCFP-eYFP dual reporter) stood at 64.5%. Regarding “RNA1{r(C)p.r(U)p.r(A)p.r(C)p.r(C)p.r(G)p.r(C)p.r(G)p.r(C)p.r(G)p.r(C)p.r(A)p.r(G)p.r(C)p.r(G)p.r(C)p.r(G)p.r(U)p.r(G)p.d(T)p.d(T)}|RNA2{r(C)p.r(A)p.r(C)p.r(G)p.r(C)p.r(G)p.r(C)p.r(U)p.r(G)p.r(C)p.r(G)p.r(C)p.r(G)p.r(C)p.r(G)p.r(G)p.r(U)p.r(A)p.r(G)p.d(C)p.d(G)}$$$RNA1{StrandType:ss}|RNA2{StrandType:as}$”, the normalised inhibition (eCFP-eYFP dual reporter) was 50.5%. In the case of “RNA1{r(C)p.r(G)p.r(C)p.r(C)p.r(A)p.r(A)p.r(G)p.r(C)p.r(C)p.r(G)p.r(G)p.r(U)p.r(C)p.r(A)p.r(C)p.r(C)p.r(G)p.r(A)p.r(G)p.d(T)p.d(T)}|RNA2{r(C)p.r(U)p.r(C)p.r(G)p.r(G)p.r(U)p.r(G)p.r(A)p.r(C)p.r(C)p.r(G)p.r(G)p.r(C)p.r(U)p.r(U)p.r(G)p.r(G)p.r(C)p.r(G)p.d(C)p.d(T)}$$$RNA1{StrandType:ss}|RNA2{StrandType:as}$”, the normalised inhibition (eCFP-eYFP dual reporter) is 59.1%.

“RNA1{r(C)p.r(U)p.r(U)p.r(C)p.r(A)p.r(C)p.r(C)p.r(C)p.r(G)p.r(C)p.r(U)p.r(A)p.r(C)p.r(G)p.r(U)p.r(G)p.r(A)p.r(C)p.r(C)p.d(T)p.d(T)}|RNA2{r(G)p.r(G)p.r(U)p.r(C)p.r(A)p.r(C)p.r(G)p.r(U)p.r(A)p.r(G)p.r(C)p.r(G)p.r(G)p.r(G)p.r(U)p.r(G)p.r(A)p.r(A)p.r(G)p.d(T)p.d(G)}$$$RNA1{StrandType:ss}|RNA2{StrandType:as}$” registered a normalised inhibition (eCFP-eYFP dual reporter) of 59.4%.

On to “RNA1{r(C)p.r(G)p.r(G)p.r(U)p.r(C)p.r(A)p.r(C)p.r(C)p.r(G)p.r(A)p.r(G)p.r(C)p.r(U)p.r(G)p.r(G)p.r(U)p.r(G)p.r(U)p.r(G)p.d(T)p.d(T)}|RNA2{r(C)p.r(A)p.r(C)p.r(A)p.r(C)p.r(C)p.r(A)p.r(G)p.r(C)p.r(U)p.r(C)p.r(G)p.r(G)p.r(U)p.r(G)p.r(A)p.r(C)p.r(C)p.r(G)p.d(G)p.d(C)}$$$RNA1{StrandType:ss}|RNA2{StrandType:as}$”, for which the normalised inhibition (eCFP-eYFP dual reporter) was found to be 52.2%. “RNA1{r(U)p.r(C)p.r(A)p.r(A)p.r(G)p.r(G)p.r(A)p.r(C)p.r(U)p.r(U)p.r(C)p.r(G)p.r(G)p.r(G)p.r(A)p.r(C)p.r(C)p.r(G)p.r(A)p.d(T)p.d(T)}|RNA2{r(U)p.r(C)p.r(G)p.r(G)p.r(U)p.r(C)p.r(C)p.r(C)p.r(G)p.r(A)p.r(A)p.r(G)p.r(U)p.r(C)p.r(C)p.r(U)p.r(U)p.r(G)p.r(A)p.d(G)p.d(C)}$$$RNA1{StrandType:ss}|RNA2{StrandType:as}$” came in with a normalised inhibition (eCFP-eYFP dual reporter) of 61.3%. Substance “RNA1{r(C)p.r(C)p.r(A)p.r(C)p.r(C)p.r(G)p.r(G)p.r(A)p.r(G)p.r(C)p.r(U)p.r(G)p.r(G)p.r(A)p.r(G)p.r(A)p.r(A)p.r(C)p.r(A)p.d(T)p.d(T)}|RNA2{r(U)p.r(G)p.r(U)p.r(U)p.r(C)p.r(U)p.r(C)p.r(C)p.r(A)p.r(G)p.r(C)p.r(U)p.r(C)p.r(C)p.r(G)p.r(G)p.r(U)p.r(G)p.r(G)p.d(A)p.d(G)}$$$RNA1{StrandType:ss}|RNA2{StrandType:as}$” had a normalised inhibition (eCFP-eYFP dual reporter) of 86.7%.

In the case of “RNA1{r(C)p.r(G)p.r(A)p.r(U)p.r(G)p.r(G)p.r(G)p.r(C)p.r(C)p.r(G)p.r(U)p.r(G)p.r(C)p.r(C)p.r(G)p.r(C)p.r(A)p.r(G)p.r(C)p.d(T)p.d(T)}|RNA2{r(G)p.r(C)p.r(U)p.r(G)p.r(C)p.r(G)p.r(G)p.r(C)p.r(A)p.r(C)p.r(G)p.r(G)p.r(C)p.r(C)p.r(C)p.r(A)p.r(U)p.r(C)p.r(G)p.d(G)p.d(T)}$$$RNA1{StrandType:ss}|RNA2{StrandType:as}$”, the normalised inhibition (eCFP-eYFP dual reporter) was 51%. As to “RNA1{r(C)p.r(G)p.r(C)p.r(G)p.r(A)p.r(G)p.r(C)p.r(U)p.r(G)p.r(C)p.r(A)p.r(C)p.r(U)p.r(U)p.r(C)p.r(A)p.r(C)p.r(C)p.r(C)p.d(T)p.d(T)}|RNA2{r(G)p.r(G)p.r(G)p.r(U)p.r(G)p.r(A)p.r(A)p.r(G)p.r(U)p.r(G)p.r(C)p.r(A)p.r(G)p.r(C)p.r(U)p.r(C)p.r(G)p.r(C)p.r(G)p.d(G)p.d(C)}$$$RNA1{StrandType:ss}|RNA2{StrandType:as}$”, the normalised inhibition (eCFP-eYFP dual reporter) stood at 54.8%. “RNA1{r(G)p.r(C)p.r(C)p.r(G)p.r(C)p.r(G)p.r(C)p.r(G)p.r(C)p.r(G)p.r(C)p.r(G)p.r(C)p.r(A)p.r(A)p.r(G)p.r(G)p.r(U)p.r(G)p.d(T)p.d(T)}|RNA2{r(C)p.r(A)p.r(C)p.r(C)p.r(U)p.r(U)p.r(G)p.r(C)p.r(G)p.r(C)p.r(G)p.r(C)p.r(G)p.r(C)p.r(G)p.r(C)p.r(G)p.r(G)p.r(C)p.d(G)p.d(C)}$$$RNA1{StrandType:ss}|RNA2{StrandType:as}$” had a normalised inhibition (eCFP-eYFP dual reporter) of 57.1%. To “RNA1{r(G)p.r(C)p.r(U)p.r(A)p.r(C)p.r(C)p.r(G)p.r(C)p.r(G)p.r(C)p.r(G)p.r(C)p.r(A)p.r(G)p.r(C)p.r(G)p.r(C)p.r(G)p.r(U)p.d(T)p.d(T)}|RNA2{r(A)p.r(C)p.r(G)p.r(C)p.r(G)p.r(C)p.r(U)p.r(G)p.r(C)p.r(G)p.r(C)p.r(G)p.r(C)p.r(G)p.r(G)p.r(U)p.r(A)p.r(G)p.r(C)p.d(G)p.d(G)}$$$RNA1{StrandType:ss}|RNA2{StrandType:as}$” belongs 51.8%; to “RNA1{r(G)p.r(C)p.r(G)p.r(A)p.r(C)p.r(C)p.r(U)p.r(A)p.r(G)p.r(U)p.r(G)p.r(G)p.r(G)p.r(C)p.r(C)p.r(C)p.r(G)p.r(A)p.r(C)p.d(T)p.d(T)}|RNA2{r(G)p.r(U)p.r(C)p.r(G)p.r(G)p.r(G)p.r(C)p.r(C)p.r(C)p.r(A)p.r(C)p.r(U)p.r(A)p.r(G)p.r(G)p.r(U)p.r(C)p.r(G)p.r(C)p.d(C)p.d(A)}$$$RNA1{StrandType:ss}|RNA2{StrandType:as}$”, 66%; to “RNA1{r(G)p.r(G)p.r(G)p.r(G)p.r(U)p.r(G)p.r(G)p.r(C)p.r(A)p.r(G)p.r(G)p.r(C)p.r(G)p.r(U)p.r(U)p.r(C)p.r(A)p.r(A)p.r(G)p.d(T)p.d(T)}|RNA2{r(C)p.r(U)p.r(U)p.r(G)p.r(A)p.r(A)p.r(C)p.r(G)p.r(C)p.r(C)p.r(U)p.r(G)p.r(C)p.r(C)p.r(A)p.r(C)p.r(C)p.r(C)p.r(C)p.d(T)p.d(G)}$$$RNA1{StrandType:ss}|RNA2{StrandType:as}$”, 48.7%. In the case of “RNA1{r(C)p.r(A)p.r(G)p.r(C)p.r(G)p.r(C)p.r(C)p.r(A)p.r(A)p.r(G)p.r(C)p.r(C)p.r(G)p.r(G)p.r(U)p.r(C)p.r(A)p.r(C)p.r(C)p.d(T)p.d(T)}|RNA2{r(G)p.r(G)p.r(U)p.r(G)p.r(A)p.r(C)p.r(C)p.r(G)p.r(G)p.r(C)p.r(U)p.r(U)p.r(G)p.r(G)p.r(C)p.r(G)p.r(C)p.r(U)p.r(G)p.d(C)p.d(G)}$$$RNA1{StrandType:ss}|RNA2{StrandType:as}$”, the normalised inhibition (eCFP-eYFP dual reporter) turned out to be 50.5%.
